Source: patent US20240287104A1, “NUCLIDE LABELLED H-TETRAZINES AND USE THEREOF FOR PET AND SPECT PRETARGETED IMAGING AND RADIONUCLIDE THERAPY” (RIGSHOSPITALET, priority 2020, published 2024)

What was measured:
[1] = Second-order rate constants by stopped-flow spectrophotometry, unsubstituted TCO in 1,4-dioxane at 25° C.; assay type: physicochemical; conditions: value of the Tz-scaffold: representative tetrazine with unsubstituted TCO, n ≥ 4
Procedure: Reaction kinetics of the Tz-derivatives were determined by pseudo-first order measurements in dioxane at 25.0±0.1° C. or PBS at 27.0±0.1° ° C. in a SX20 stopped flow photometer (Applied Photophysics). The pseudo first order rate constant was determined by linearization of the decay curve followed by linear fitting. The second order rate constant was calculated from the pseudo-first order rate constant.
A structurally diverse library of 45 Tz-derivatives was prepared (FIG. 15), covering a wide spectrum of physicochemical properties, in particular calculated TPSAs between 60-350 Å2 and different lipophilicities, with calculated log D7.4 values (c log D7.4) ranging from approximately −7.0 to 2.5 (Table 5). […] The distribution coefficient at physiological pH (log D7.4) and TPSA were calculated using the software Chemicalize. Tetrazines conjugated to DOTA were calculated with chelated trivalent cations, Tzs with other chelators with bivalent cations. Second-order rate constants for the Tz scaffolds A-L were determined by stopped-flow spectrophotometry (n≥4), monitoring the reaction of representative tetrazines with unsubstituted trans-cyclooctene (TCO) at 25° C. in 1,4-dioxane, and with TCO-PEG4 (modified TCO-5ax-OH, ‘minor-TCO’) in Dulbecco's phosphate buffered saline (DBPS) at 37° C. n≥3.

[2] = Second-order rate constants by stopped-flow spectrophotometry, TCO-PEG4 in DPBS at 37° C.; assay type: physicochemical; conditions: value of the Tz-scaffold: representative tetrazine with TCO-PEG4, n ≥ 4
Procedure: A structurally diverse library of 45 Tz-derivatives was prepared (FIG. 15), covering a wide spectrum of physicochemical properties, in particular calculated TPSAs between 60-350 Å2 and different lipophilicities, with calculated log D7.4 values (c log D7.4) ranging from approximately −7.0 to 2.5 (Table 5). The Tz-scaffolds (A-L) include mono- and disubstituted methyl-, phenyl-, 2-pyrimidyl-, and 2-pyridyl-substituted Tz-derivatives with second-order rate constants for the reaction with TCO ranging from 1.4 to 230 M^−1 s^−1 in 1,4-dioxane at 25° C., and from 1,100 to 73,000 M^−1 s^−1 in buffered aqueous solution at 37° C. […] Several compounds were obtained as copper(II) complexes (for details see the Supporting Information), which was taken into account in the calculation of c log D7.4 and TPSA. The distribution coefficient at physiological pH (log D7.4) and TPSA were calculated using the software Chemicalize. Tetrazines conjugated to DOTA were calculated with chelated trivalent cations, Tzs with other chelators with bivalent cations. Second-order rate constants for the Tz scaffolds A-L were determined by stopped-flow spectrophotometry (n≥4), monitoring the reaction of representative tetrazines with unsubstituted trans-cyclooctene (TCO) at 25° C. in 1,4-dioxane, and with TCO-PEG4 (modified TCO-5ax-OH, ‘minor-TCO’) in Dulbecco's phosphate buffered saline (DBPS) at 37° C. n≥3.

[3] = test system: CC49-TCO pretargeted LS174T colon carcinoma xenografts; experiment: Pretargeted blocking assay with [111In]Q (Example 140); assay type: in vivo, BALB/c mice; conditions: for Blocking effect: unlabeled Tz i.v. 72 h after CC49-TCO and 1 h before [111In]Q, change in tumor uptake 22 h p.i., normalized to unblocked group
Procedure: All animal studies were approved by the Danish Animal Welfare Council, ministry of Justice. Five weeks old female nude BALB/c mice (Charles River, Sulzfeld, Germany) were allowed to acclimatize for one week with access to water and chow ad libitum. Human colon cancer cell line (LS174T; obtained from ATCC) was cultured in minimum essential medium (MEM) supplemented with 10% fetal bovine serum, 1% L-Glutamine, 1% Sodium pyruvate, 1% non-essential amino acids, and 1% penicillin-streptomycin at 37° C. and 5% CO2. Cells were harvested by trypsination at a confluence of 70-90% and subcutaneous tumors were established in the left flank of the 6 weeks old animals by inoculation of ˜5×10^6 LS174T cells resuspended in sterile PBS (100 μL) and allowed to grow for 7-10 days. Tumors were measured using a caliper and the volume calculated using the formula volume=½(length×width^2).
The assay was inspired by receptor blocking experiments and based on the pretargeted imaging approach reported by Rossin et al. An ^111In-labeled Tz [^111In]Q was used in pair with TCO-modified CC49, a non-internalizing mAb that targets the tumor-associated glycoprotein 72 (TAG72), as a benchmark model for the in vivo ligation.
The TCO-modification of CC49 was carried out according to Rossin et al. To study the in vivo ligation performance of Tz-derivatives 1a-45a, BALB/c mice bearing LS174T colon carcinoma xenografts were injected intravenously (i.v.) with CC49-TCO 72 h prior to i.v. injection of the unlabeled Tz, followed by administration of [^111In]Q 1 h later. The animals were euthanized after 22 h and an ex vivo biodistribution was carried out to quantify the tumor uptake of [111 In]Q (FIG. 15). The efficiency of the in vivo ligation of the unlabeled Tz can thus be correlated to a reduced uptake of [111 In]Q (FIG. 15). As a control, blocking was performed using the non-radioactive precursor of [^111In]Q, which blocked ≥99% of the [^111In]Q tumor uptake. A group of CC49-TCO pretreated mice were injected exclusively with [^111In]Q (without blocking) and the determined uptake was used as reference value (100%) to normalize the observed changes in tumor uptake in blocking experiments.
All of these probes include H-phenyl-, pyrimidyl-phenyl-, or bis(pyridyl)-Tz-scaffolds with second-order rate constants for the reaction with TCO of >70 M 1 s 1 (1,4-dioxane, 25° C.) or of >39,000 M 1 s 1 (DPBS, 37° C.) (cf. Table 5). Next, potential correlations between the blocking effect, the c log D7.4 and the TPSA, as well as IEDDA reactivity were investigated. […] However, a distinct relationship between c log D7.4 values and the blocking effect was evidently observed when comparing Tz-derivatives with similar IEDDA reactivity (FIG. 16C, 16D). For all Tz-scaffolds a Pearson's correlation coefficient >0.78 was found. […] The blocking effect of non-radiolabeled Tz was determined as the change in tumor uptake of [111 In]Q 22 h p.i. Each Tz was administered 1 h prior to [111 In]Q and the uptake normalized to a group of animals were no blocking was performed (control). Data represent mean from n=3 mice/group. Correlation of blocking effect and c log D7.4 for Tz-derivatives with similar IEDDA reactivity (as shown in FIGS. 16C and D) where data was fitted to exponential growth equation Y=Y0 ekx (dotted line). The statistical analysis of the correlation between tumor uptake and c log D7.4 for the different groups of Tz-derivatives (shown in Table 7) was obtained by Pearson's correlation coefficient (r) which describes the goodness of fit between the blocking effect and c log D7.4. Notes: a Reaction of representative Tz with unsubstituted TCO; “Reaction of representative Tz with TCO-PEG4;” Measured for Tz-scaffold A only; n.d.=not determined.

[4] = test system: CC49-TCO pretargeted LS174T tumor xenografts; experiment: Blocking experiments with [111In]Q (Example 126, FIG. 3); assay type: in vivo, nude BALB/c mice; conditions: FIG. 3, cold 19F-Tz 2 h before [111In]Q
Procedure: In this respect, we designed two highly reactive Tzs, which allowed ^18F-labeling and respective introduction of polar groups (FIG. 4-8). UB137 and UB108 were synthesized in sufficient yields via a Pinner-like synthesis as described in Example 97 and 106 and their ability to be used in pretargeted imaging were evaluated. The results were compared with the performance of compounds UB-65 and RGV-52 (FIG. 3). Efficiency in vivo was tested in an ex vivo screening assay lately published by our group and is inspired by traditional receptor blocking studies. In short, tumour-bearing mice are injected with a validated TCO-modified pretargeting vector 72 h before a test ^19F-Tz is administered. Subsequently after 2 hours, a pretargeted established ^111In-DOTA-Tz (Q)[6] is administered to the same mouse. […] In this manner, the blocking ability of the cold ^19F-Tz can be evaluated. […]
All animal studies were approved by the Danish Animal Welfare Council, ministry of Justice. […] Tumors were measured using a caliper and the volume calculated using the formula volume=½(length×width^2).
These blocking experiments were made using the method described in Example 125. […] All tissues were weighted and the radioactivity measured in a gamma counter (Wizard2, Perkin Elmer) and data was corrected for decay, tissue weight and injected amount of radioactivity. […]

[5] = Stability in phosphate-buffered saline (PBS) by analytical HPLC; assay type: physicochemical; conditions: 12 h at 37° C.; for Stability in PBS (degradation): analytical HPLC
Procedure: The in vitro stability of UB108 and UB137 was assessed by analytical HPLC in Phosphate-buffered saline (PBS), Example 13 for UB108. […] Consequently, the organotin precursors were synthesized with an unoptimized synthetic strategy (FIG. 6, Examples 101 and 110). Radiolabeling succeeded in a one-pot, two step sequence with a RCY (d.c.) of approx. 10% and an overall synthesis time of ca. 90 minutes including synthesis, separation and formulation steps. An activity yield of 636 MBq starting from 11 GBq fluoride-18, and RCP of 98% at EOS was observed (FIGS. 6 and 11). UB137 could be labeled with similar results (FIGS. 6 and 7). The tetrazine ligation of ^18F-UB108 with s-TCO occurred rapidly, forming ligation products after click reaction (FIG. 11). Stability evaluation was completed for the formulated compound ^18F-UB108 in PBS at room temperature. […] UB137 could be labeled with similar results.
The shelf stability of UB-108 was assessed in phosphate-buffered saline (PBS) by analytical-HPLC. […] Consequently, the stannane precursor was synthesized in 4 steps (example 98-101 Radiolabeling succeeded in a one-pot, two-step sequence with a RCY (d.c.) of 11±3% (n=4) and an overall synthesis time of ca. 90 minutes including synthesis, separation and formulation. [^18F]-UB108 was obtained with an Am of 134±22 GBq/μmol (d.c.), a RCP of ≥99% (n=4) and an activity yield of 600-700 MBq (EOS) starting from ˜12 GBq fluoride-18. [^18F]-UB108 was stable in PBS at room temperature for minimum 4 h and rapidly reacted with TCO-PNP carbonate (23) as confirmed by radio-HPLC. Residual amounts of Cu and Sn in the final formulated solution were analyzed by ICP-MS and found to be well below the allowed limits specified in the ICH Guidelines (41-60 and 2.3-3.0 μg/L vs. 300 and 600 μg/day, respectively).

Compound: O=C(O)CN1CCN(CC(=O)O)CCN(CC(=O)NCCOCCOCCOCCOCCOCCOCCOCCOCCOCCOCCOCCNC(=O)CCCC(=O)Nc2ccc(-c3nnc(-c4ccccn4)nn3)nc2)CCN(CC(=O)O)CC1 [Q, reference compound]
- Rate constant (1,4-dioxane, 25° C.) [1]: 230 M⁻¹ s⁻¹
- Rate constant (DPBS, 37° C.) [2]: 73,000 M^−1 s^−1
- % Tumor Uptake of [^111In]46 after blocking ([3]; tumor uptake 22 h p.i. normalized to unblocked group (100%)): 1%
- Blocking effect [3]: 99%
- Blocking effect ([3]; listed as non-radioactive precursor of [^111In]Q): ≥ 99%

Compound: O=C(O)CN(CC(=O)O)Cc1cc(F)cc(-c2nncnn2)c1 [UB-108, 1-Carboxy-N-(carboxymethyl)-N-(3-fluoro-5-(1,2,4,5-tetrazin-3-yl)benzyl)methanaminium 2,2,2-trifluoroacetate]
- Blocking effect (ranking) [4]: best blocking effect
- Shelf stability in PBS, intact ([5]; 2 nmol/mL): 98%
- Stability in PBS (degradation) [5]: did not show degradation

Compound: O=C(O)CNCc1cc(F)cc(-c2nncnn2)c1 [UB-137, 1-Carboxy-N-(3-fluoro-5-(1,2,4,5-tetrazin-3-yl)benzyl)methanaminium 2,2,2-trifluoroacetate]
- Blocking effect (ranking) [4]: best blocking effect
- Stability in PBS (degradation) [5]: did not show degradation
